Biological target: GST-RIPK1 (recombinant GST-RIPK1 kinase domain (residues 1-327)) (Homo sapiens (Human), UniProt Q13546)
Assay: RIPK1-ADP-Glo Enzymatic Assay
Type: biochemical
Conditions: 25 nM GST-RIPK1, 300 μM ATP, 3 μM dephosphorylated-MBP, 30 min pre-incubation, 150 min reaction
Method: The enzymatic activity of RIPK1 is measured using an assay derived from ADP-Glo kit (TMPromega), which provides a luminescent-based ADP detection system. Specifically, the ADP generated by RIPK1 kinase is proportionally detected as luminescent signals in a homogenous fashion. In this context, the assessment of the inhibitory effect of small molecules (EC50) is measured by the effectiveness of the compounds to inhibit the ATP to ADP conversion by RIPK1.
In this assay, the potency (EC50) of each compound was determined from a ten-point (1:3 serial dilution; top compound concentration of 100000 nM) titration curve using the following outlined procedure. To each well of a white ProxiPlus 384 well-plate, 30 nL of compound (1% DMSO in final assay volume of 3 μL) was dispensed, followed by the addition of 2 μL of 1× assay buffer (25 mM Hepes 7.3, 20 mM MgCl2, 50 mM NaCl, 1 mM DTT, 0.005% Tween20, and 0.02% BSA) containing 37.5 nM of GST-RIPK1 (recombinant GST-RIPK1 kinase domain (residues 1-327) enzyme produced from baculovirus-transfected Sf21 cells: MW 62 kDa). Plates were placed in an ambient temperature humidified chamber for a 30 min pre-incubation with compound. Subsequently, each reaction was initiated by the addition of 1 μL 1× assay buffer containing 900 μM ATP and 3 μM dephosphorylated-MBP substrate. The final reaction in each well of 3 μL consists of 25 nM of GST-RIPK1, 300 μM ATP, and 3 μM dephosphorylated-MBP. Kinase reactions were allowed to proceed for 150 min prior to adding ADP-Glo reagents per Promega's outlined kit protocol. Dose-response curves were generated by plotting percent effect (% product conversion; Y-axis) vs. Log 10 compound concentrations (X-axis). EC50 values were calculated using a non-linear regression, four-parameters sigmoidal dose-response model.

Chain of GST-RIPK1 (recombinant GST-RIPK1 kinase domain (residues 1-327)) (Q13546 1-327): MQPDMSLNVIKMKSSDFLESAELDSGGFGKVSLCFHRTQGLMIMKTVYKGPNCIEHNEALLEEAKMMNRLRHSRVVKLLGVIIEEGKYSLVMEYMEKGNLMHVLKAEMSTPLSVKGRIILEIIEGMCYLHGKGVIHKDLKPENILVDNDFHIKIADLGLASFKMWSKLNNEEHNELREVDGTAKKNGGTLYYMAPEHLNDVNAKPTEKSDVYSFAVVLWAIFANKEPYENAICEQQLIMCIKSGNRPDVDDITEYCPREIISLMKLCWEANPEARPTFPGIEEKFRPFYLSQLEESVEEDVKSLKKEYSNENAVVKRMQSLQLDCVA

| Structure (SMILES) | EC50 |
| --- | --- |
| N#CC12CC(n3nc4n(c3=O)[C@H](c3cc(F)cc(F)c3)CCC4)(C1)C2 [Compound 1-53, (S)-3-(5-(3,5-difluorophenyl)-3-oxo-5,6,7,8-tetrahydro-[1,2,4]triazolo[4,3-a]pyridin-2(3H)-yl)bicyclo[1.1.1]pentane-1-carbonitrile] | 109 nM |
| Cc1c(F)cc([C@@H]2CCc3nn(C45CC(F)(C4)C5)c(=O)n32)cc1F [Compound 1-56, (S)-5-(3,5-difluoro-4-methylphenyl)-2-(3-fluorobicyclo[1.1.1]pentan-1-yl)-2,5,6,7-tetrahydro-3H-pyrrolo[2,1-c][1,2,4]triazol-3-one] | 15.8 nM |
| N#CC12CC(n3nc4n(c3=O)[C@H](c3c(F)cccc3F)CC4)(C1)C2 [Compound 1-43, (S)-3-(5-(2,6-difluorophenyl)-3-oxo-6,7-dihydro-3H-pyrrolo[2,1-c][1,2,4]triazol-2(5H)-yl)bicyclo[1.1.1]pentane-1-carbonitrile] | 57.7 nM |
| O=c1n(C23CC(Cl)(C2)C3)nc2n1[C@H](c1ccccc1)CC2 [Compound 1-41, (5S)-2-(3-chlorobicyclo[1.1.1]pentan-1-yl)-5-phenyl-2,5,6,7-tetrahydro-3H-pyrrolo[2,1-c][1,2,4]triazol-3-one] | 32.9 nM |
| O=c1n(C23CCC(C2)C3)nc2n1[C@H](c1cnccn1)CC2 [Compound 1-61, (S)-2-(bicyclo[2.1.1]hexan-1-yl)-5-(pyrazin-2-yl)-2,5,6,7-tetrahydro-3H-pyrrolo[2,1-c][1,2,4]triazol-3-one] | 696 nM |
| O=c1n(C23CCC(CC2)C3)nc2n1[C@H](c1ccccc1)CC2 [Compound 1-1, (5S)-2-(bicyclo[2.2.1]heptan-1-yl)-5-phenyl-2,5,6,7-tetrahydro-3H-pyrrolo[2,1-c][1,2,4]triazol-3-one] | 21.6 nM |
| N#CC12CC(n3nc4n(c3=O)[C@H](c3ccc(C(F)(F)F)cc3)CC4)(C1)C2 [Compound 1-50, (S)-3-(3-oxo-5-(4-(trifluoromethyl)phenyl)-6,7-dihydro-3H-pyrrolo[2,1-c][1,2,4]triazol-2(5H)-yl)bicyclo[1.1.1]pentane-1-carbonitrile] | 250 nM |
| CC(F)(F)C12CC(n3nc4n(c3=O)[C@H](c3ccccc3)CC4)(C1)C2 [Compound 1-32, (5S)-2-[3-(1,1-difluoroethyl)bicyclo[1.1.1]pentan-1-yl]-5-phenyl-2,5,6,7-tetrahydro-3H-pyrrolo[2,1-c][1,2,4]triazol-3-one] | 36.4 nM |
| N#CC12CC(n3nc4n(c3=O)[C@H](c3cccc(F)c3)CC4)(C1)C2 [Compound 1-24, (S)-3-(5-(3-fluorophenyl)-3-oxo-6,7-dihydro-3H-pyrrolo[2,1-c][1,2,4]triazol-2(5H)-yl)bicyclo[1.1.1]pentane-1-caronitrile] | 29.7 nM |
| N#CC12CC(n3nc4n(c3=O)[C@H](c3cc(F)cc(F)c3)CC4)(C1)C2 [Compound 1-5, 3-[(5S)-5-(3,5-difluorophenyl)-3-oxo-6,7-dihydro-3H-pyrrolo[2,1-c][1,2,4]triazol-2(5H)-yl]bicyclo[1.1.1]pentane-1-carbonitrile] | 14.8 nM |
| N#CC12CCC(n3nc4n(c3=O)[C@H](c3cc(F)cc(F)c3)CC4)(CC1)C2 [Compound 1-29, 4-[(5S)-5-(3,5-difluorophenyl)-3-oxo-6,7-dihydro-3H-pyrrolo[2,1-c][1,2,4]triazol-2(5H)-yl]bicyclo[2.2.1]heptane-1-carbonitrile] | 68 nM |
| N#CC12CC(n3nc4n(c3=O)[C@H](c3cncc(F)c3)CC4)(C1)C2 [Compound 1-11, 3-[(5S)-5-(5-fluoropyridin-3-yl)-3-oxo-6,7-dihydro-3H-pyrrolo[2,1-c][1,2,4]triazol-2(5H)-yl]bicyclo[1.1.1]pentane-1-carbonitrile] | 300 nM |
| CC1Cc2nn(C34CC(C#N)(C3)C4)c(=O)n2C1c1cc(F)cc(F)c1 (single isomer, unassigned) [Compound 1-52, 3-[5-(S or R)-(3,5-difluorophenyl)-6-(S or R)-methyl-3-oxo-6,7-dihydro-3H-pyrrolo[2,1-c][1,2,4]triazol-2(5H)-yl]bicyclo[1.1.1]pentane-1-carbonitrile] | 601 nM |
| O=c1n(C23CC(C(F)F)(C2)C3)nc2n1[C@H](c1cc(F)cc(F)c1)CC2 [Compound 1-28, (5S)-2-[3-(difluoromethyl)bicyclo[1.1.1]pentan-1-yl]-5-(3,5-difluorophenyl)-2,5,6,7-tetrahydro-3H-pyrrolo[2,1-c][1,2,4]triazol-3-one] | 25.9 nM |
| O=c1n(C23CC(F)(C2)C3)nc2n1[C@H](c1cc(F)c(O)c(F)c1)CC2 [Compound 1-73, (S)-5-(3,5-difluoro-4-hydroxyphenyl)-2-(3-fluorobicyclo[1.1.1]pentan-1-yl)-2,5,6,7-tetrahydro-3H-pyrrolo[2,1-c][1,2,4]triazol-3-one] | 28.2 nM |
| N#CC12C3C4C1C1C2C3C41n1nc2n(c1=O)[C@H](c1cc(F)cc(F)c1)CC2 (stereo partly drawn) [Compound 1-21, 4-[(5S)-5-(3,5-difluorophenyl)-3-oxo-6,7-dihydro-3H-pyrrolo[2,1-c][1,2,4]triazol-2(5H)-yl]penta-cyclo[4.2.0.0~2,5~.0~3,8~.0~4.7~] octane-1-carbonitrile] | 141 nM |
| N#CC12CC(n3nc4n(c3=O)[C@H](c3cc(F)cc(F)c3)COC4)(C1)C2 [Compound 1-79, (R)-3-(5-(3,5-difluorophenyl)-3-oxo-5,6-dihydro-3H-[1,2,4]triazolo[3,4-c][1,4]oxazin-2(8H)-yl)bicyclo[1.1.1]pentane-1-carbonitrile] | 108 nM |

The next lines start with the values.

| EC50 | Structure (SMILES) |
| --- | --- |
| 18.1 nM | N#CC12CC(n3nc4n(c3=O)[C@H](c3ccccc3F)CC4F)(C1)C2 (single isomer, unassigned) [Compound 6-10, 3-[(5S)-7-(S or R)-fluoro-5-(2-fluorophenyl)-3-oxo-6,7-dihydro-3H-pyrrolo[2,1-c][1,2,4]triazol-2(5H)-yl]bicyclo[1.1.1]pentane-1-carbonitrile] |
| 53.8 nM | O=c1n(C23CC(F)(C2)C3)nc2n1C(c1cccc(F)c1F)CC2 (racemic) [Compound 4-5, (±)-5-(2,3-difluorophenyl)-2-(3-fluorobicyclo[1.1.1]pentan-1-yl)-2,5,6,7-tetrahydro-3H-pyrrolo[2,1-c][1,2,4]triazol-3-one] |
| 78.3 nM | O=c1n(C23CC(F)(C2)C3)nc2n1[C@H](c1cc(F)cc(F)c1)C[C@H]2O [Compound 5-1, (5S,7R)-5-(3,5-difluorophenyl)-2-(3-fluorobicyclo[1.1.1]pentan-1-yl)-7-hydroxy-2,5,6,7-tetrahydro-3H-pyrrolo[2,1-c][1,2,4]triazol-3-one] |
| 108 nM | O=c1n(C23CC(F)(C2)C3)nc2n1[C@H](c1ccc(C3CC3)cc1)CC2 [Compound 4-11, (S)-5-(4-cyclopropylphenyl)-2-(3-fluorobicyclo[1.1.1]pentan-1-yl)-2,5,6,7-tetrahydro-3H-pyrrolo[2,1-c][1,2,4]triazol-3-one] |
| 25.7 nM | O=c1n(C23CC(F)(C2)C3)nc2n1[C@H](c1cc(F)cc(F)c1)C[C@@H]2O [Compound 5-2, (5S,7S)-5-(3,5-difluorophenyl)-2-(3-fluorobicyclo[1.1.1]pentan-1-yl)-7-hydroxy-2,5,6,7-tetrahydro-3H-pyrrolo[2,1-c][1,2,4]triazol-3-one] |
| 45 nM | N#CC12CC(n3nc4n(c3=O)[C@H](c3ccccc3)CC4)(C1)C2(F)F [Compound 3-3, 2,2-difluoro-3-[(5S)-3-oxo-5-phenyl-6,7-dihydro-3H-pyrrolo[2,1-c][1,2,4]triazol-2(5H)-yl]bicyclo[1.1.1]pentane-1-carbonitrile] |
| 385 nM | N#CC12CC(n3nc4n(c3=O)C(c3cnccn3)CC4)(C1)C2 (racemic) [Compound 4-1, (±)-3-(3-oxo-5-(pyrazin-2-yl)-6,7-dihydro-3H-pyrrolo[2,1-c][1,2,4]triazol-2(5H)-yl)bicyclo[1.1.1]pentane-1-carbonitrile] |
| 68.9 nM | N#CC12CC(n3nc4n(c3=O)[C@H](c3ccccc3F)CC4F)(C1)C2 (single isomer, unassigned) [Compound 6-9, 3-[(5S)-7-(S or R)-fluoro-5-(2-fluorophenyl)-3-oxo-6,7-dihydro-3H-pyrrolo[2,1-c][1,2,4]triazol-2(5H)-yl]bicyclo[1.1.1]pentane-1-carbonitrile] |
| 18.4 nM | O=c1n(C23CC(F)(C2)C3)nc2n1[C@H](c1cc(F)cc(F)c1)CC2F (single isomer, unassigned) [Compound 6-2, (5S)-5-(3,5-difluorophenyl)-7-(S or R)-fluoro-2-(3-fluorobicyclo[1.1.1]pentan-1-yl)-2,5,6,7-tetrahydro-3H-pyrrolo[2,1-c][1,2,4]triazol-3-one] |
| 84 nM | O=c1n(C23CC(F)(C2)C3)nc2n1[C@H](c1cnccn1)CC2 [Compound 4-12, (S)-2-(3-fluorobicyclo[1.1.1]pentan-1-yl)-5-(pyrazin-2-yl)-2,5,6,7-tetrahydro-3H-pyrrolo[2,1-c][1,2,4]triazol-3-one] |

Reference: patent US20240025912A1 (Merck Sharp & Dohme LLC, priority 2022, published 2024)
